Columns and labels:
Assay type in all cases: cell-based, rat
[1] = system: IR tyrosine phosphorylation; assay: IR tyrosine phosphorylation, immunoprecipitation and Western blot; conditions: insulin 100nM; for effect on insulin-stimulated IR tyrosine phosphorylation: L6 cells, C2cer 10μM 18h, with or without Prep1(54-72)
Procedure: (§1) Figure 4 Prep1(54-72) peptide restores the insulin signaling inhibited by C2cer and Prep1 L6 cells were stimulated with insulin (100nM) and incubated with Prep1(54-72) in presence of C2cer at 10μM for 18h (A-B) or stable transfection of Prep1 (C-D). Protein lysates were immunoprecipitated with specific IR or IRS1 antibodies and analyzed by Western blot using antibodies for phosphotyrosines (pY) and beta-actin as loading control. Blots were detected by ECL and autoradiography. The autoradiographs are representative of three independent experiments. Asterisks denote statistically significant differences (*p<0.05; **p<0.01).
(§2) Total cell lysates were obtained and separated by SDS-PAGE. Briefly, cells were solubilized with lysis buffer containing 50mM HEPES, 150mM NaCl, 10mM EDTA, 10mM Na4P2O7, 2mM sodium orthovanadate, 50mM NaF, 1mM phenylmethylsulfonyl fluoride, 10μg/ml aprotinin, 10μg/ml leupeptin, pH 7.4, and 1% (v/v) Triton X-100. Lysates were clarified by centrifugation at 12,000g for 20 minutes at 4°C. The protein concentrations in the cell lysates were measured using a Bio-Rad DC (detergent compatible) assay. Immunoprecipitation and Western blot analysis have been performed as previously described.

L6 cells [2] = assay: Glycogen content in L6 cells; conditions: for effect on insulin-stimulated glycogen synthesis: insulin 100nM, C2cer 10μM, with or without Prep1(54-72)
Procedure: (§3) Figure 6 Effect of Prep1(54-72) peptide on glycogen content and 2-DG uptake L6 control and Prep1 overexpressing cells were stimulated with Insulin (100nM) and/or C2cer (10μM) and incubated with Prep1(54-72). (A) Glycogen content and (B) 2-DG uptake were measured as described in methods. Bars represent the mean ± SD of three independent experiments. Asterisks denote statistically significant differences (*p<0.05; **p<0.01; ***p<0.001).
(§4) Glycogen was isolated from L6 cells homogenized in 0.1% SDS, saturated with Na2SO4 for 30 minutes at 37°C, followed by ethanol (EtOH) precipitation. Glycogen content was determined as previously described. 2-DG uptake by the L6 cells was measured as previously reported.

[3] = system: IRS1 tyrosine phosphorylation; assay: IRS1 tyrosine phosphorylation, immunoprecipitation and Western blot; conditions: insulin 100nM; for effect on insulin-stimulated IRS1 tyrosine phosphorylation: L6 cells, C2cer 10μM 18h, with or without Prep1(54-72)
Procedure: as §1, §2

L6 cells [4] = assay: 2-DG uptake in L6 cells; conditions: for effect on insulin-stimulated glucose uptake (2-DG): insulin 100nM, C2cer 10μM, with or without Prep1(54-72)
Procedure: as §3, §4

[5] = system: PGC-1α and GLUT4 protein expression; assay: PGC-1α and GLUT4 protein expression, Western blot
Procedure: Figure 5 Effect of Prep1(54-72) peptide on Akt phosphorylation and PGC-1α and GLUT4 protein levels (A-B) L6 control and Prep1 overexpressing cells were stimulated with Insulin (100nM) and/or C2cer (10μM) and incubated with Prep1(54-72). Protein lysates were analyzed by Western blot using antibodies for pAkt, Akt and for the beta-actin, as a loading control. (C) PGC-1α and GLUT4 protein levels were measured by using specific antibodies for these proteins and beta-actin antibody was used as loading control. Blots were detected by ECL and autoradiography. The autoradiographs are representative of four independent experiments. Asterisks denote statistically significant differences (*p<0.05; **p<0.01; ***p<0.001).
as §2

[6] = Prep1L6 cells (stably transfected with Prep1 cDNA), incubated with Prep1(54-72)

Compound	effect on insulin-stimulated IR tyrosine phosphorylation [1]	reduction of insulin-stimulated glycogen content (L6 cells [2]; C2cer exposure (abstract)) [fold]	effect on insulin-stimulated glycogen synthesis (L6 cells [2])	effect on insulin-stimulated IRS1 tyrosine phosphorylation [3]	reduction of insulin-stimulated glucose uptake (L6 cells [4]; C2cer exposure (abstract)) [fold]	effect on insulin-stimulated glucose uptake (2-DG) (L6 cells [4])	decrease of PGC-1α and GLUT4 protein expression ([5]; L6 cells incubated with C2cer 10μM)	IR tyrosine phosphorylation in Prep1 overexpressing cells [1, 6]	IRS1 tyrosine phosphorylation in Prep1 overexpressing cells [3, 6]	effect on decreased PGC-1α and GLUT4 protein expression ([5]; L6 cells with C2cer or Prep1 overexpression, Prep1(54-72))
CCCCCCCCCCCCC/C=C/[C@@H](O)[C@H](CO)NC(C)=O [C2cer, D-erythro-Sphingosine, N-Acetyl-, reference compound]	blocked	1.3	negatively modulated	blocked	2.1	negatively modulated	approximately 35%	–	–	–
Ac-KQAIYRHPLFPLLALLFEK-NH2 [Prep1(54-72)]	restored	–	recovered the insulin response	restored	–	recovered the insulin response	–	stimulated similarly to the control cells	stimulated similarly to the control cells	significantly reverted

From article PMC5641094, “A peptide antagonist of Prep1-p160 interaction improves ceramide-induced insulin resistance in skeletal muscle cells” (Oncotarget, 2017)
